These results are taken from patent US8748462B2, “Spirocyclic GPR40 modulators” (Amgen Inc., priority 2008, dated 2014).

The target in assay [1] is T1, human GPR40 (Homo sapiens, UniProt O14842).
T1 construct: expressed in transfected cells; host or cells: CHO cells stably transfected with GPR40 and Aequorin
The assay is described as follows: Cell-based aequorin assay. As to conditions: CHO cells stably transfected with GPR40 and aequorin; 0.01% HSA. The procedure:
Cell-based aequorin assays were employed to characterize the modulatory activity of compounds on the GPR40 signaling pathway. In an exemplary assay, CHO cells were stably transfected with both GPR40 and Aequorin (Euroscreen). Cells were detached from the tissue culture dish with 2 mL of trypsin (0.25% (w/v)). Trypsinization was halted with 28 mL of Hanks Buffered Salt Solution containing 20 mM Hepes (H/HBSS) and 0.01% fatty acid-free human serum albumin (HSA). Coelantrazine is added to 1 ug/mL, and the cells were incubated for 2 hours at room temperature. Compounds were dissolved in DMSO for preparation of 10 mM stock solutions. Compounds were diluted in H/HBSS containing 0.01% HSA. Serial dilutions of the test compounds were prepared to determine dose response.
Aequorin luminescence measurements were made using an EG&G Berthold 96-well luminometer, and the response was measured over a 20 second interval after cells and compounds were mixed. The maximum relative light units was plotted to determine dose response. The EC50 (effective concentration to reach 50% maximal response) was determined from the dose response plot.

Assay [2] addresses T1, human GPR40. The assay is described as follows: Inositol phosphate accumulation assay. As to conditions: A9 cell line stably transfected with GPR40; 1 hour at 37° C.; read-out: IP3 EC50. Format: cell-based. The procedure: An A9 cell line stably transfected with GPR40 (A9_GPR40) was used in IP accumulation assays. A9_GPR40 cells were plated in 96-well plates containing 20,000 cells/well in DMEM containing 10% FBS. After the cells attached to the well surface, the media was replaced with inositol free DMEM containing 10% dialyzed FBS and 1 μCi, mL ^3H-inositol and incubated for 16 hours. Compounds were diluted in HBSS/10 mM LiCl containing a desired amount of HSA and added directly to cells. Following 1 hour incubation at 37° C., the media was replaced with 100 μL of 20 mM formic acid to quench the reaction. 50 μL of the extract was then added to 100 μL of SPA beads, incubated overnight, and measured on a TopCount the following day.

Each structure is given as a SMILES string.

T1 sequence (O14842 whole entry): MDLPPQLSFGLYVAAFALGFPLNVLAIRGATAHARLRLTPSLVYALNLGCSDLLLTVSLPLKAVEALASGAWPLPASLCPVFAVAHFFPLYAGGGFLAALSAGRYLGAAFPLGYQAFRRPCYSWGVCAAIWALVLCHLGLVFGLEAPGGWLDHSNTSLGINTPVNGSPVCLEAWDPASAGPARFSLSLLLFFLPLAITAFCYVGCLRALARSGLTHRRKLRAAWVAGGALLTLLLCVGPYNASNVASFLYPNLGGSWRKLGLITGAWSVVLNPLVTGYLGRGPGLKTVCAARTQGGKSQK

Consider `C=CC(C)(C)[C@H]1c2cc(COc3ccc4c(c3)[C@]3(CC4)C[C@H]3C(=O)O)ccc2-c2c(F)ccc(OC)c21` (racemic) [Example 21], for which the half-maximal effective concentration (EC50) (usually the concentration needed to bring the measured effect to its halfway point) in assay [1] fell in the range of 100 to 1000 nM.

In assay [1], `CO[C@@H](c1cc(COc2ccc3c(c2)[C@]2(CCC3)C[C@H]2C(=O)O)ccc1Br)C(C)(C)C` (racemic) [Example 132] registered an EC50 of 1000 to 10000 nM.

Consider `COc1cccc(-c2ccc(COc3ccc4c(c3)[C@]3(CCC4)C[C@H]3C(=O)O)cc2[C@H](OC)C(C)(C)C)c1F` (racemic) [Example 134], for which the EC50 in assay [1] was in the range of 100 to 1000 nM; in assay [2], 10 to 100 nM.

Regarding `CO[C@@H](c1cc(COc2ccc3c(c2)[C@]2(CCC3)C[C@H]2C(=O)O)ccc1-c1cncs1)C(C)(C)C` (racemic) [Example 135], the EC50 in assay [1] was in the range of 1000 to 10000 nM.

Regarding `CO[C@@H](c1cc(COc2ccc3c(c2)[C@]2(CCC3)C[C@H]2C(=O)O)ccc1-c1ccnc(C(F)(F)F)c1)C(C)(C)C` (racemic) [Example 136], the concentration giving a half-maximal response (EC50) in assay [1] is 1000 to 10000 nM.

In the case of `CO[C@@H](c1cc(COc2ccc3c(c2)[C@]2(CCC3)C[C@H]2C(=O)O)ccc1-c1cccc(Cl)c1)C(C)(C)C` (racemic) [Example 137], the half-maximal effective concentration (EC50) in assay [1] lay in the range of 100 to 1000 nM; in assay [2] it was 10 to 100 nM.

For the molecule `CO[C@@H](c1cc(COc2ccc3c(c2)[C@]2(CCC3)C[C@H]2C(=O)O)ccc1-c1cncc(F)c1)C(C)(C)C` (racemic) [Example 138], in assay [1], the EC50 was in the range of 1000 to 10000 nM.

Molecule `COc1ccc(F)c(-c2ccc(COc3ccc4c(c3)[C@@]3(CC4)C[C@@H]3C(=O)O)cc2[C@H]2CCCC2(C)C)c1` (single isomer, unassigned) [Example 10] displayed an EC50 in assay [1] of more than 10000 nM.

As to `C=CC(C)(C)[C@@H]1c2cc(COc3ccc4c(c3)[C@]3(CC4)C[C@H]3C(=O)O)ccc2-c2c(F)ccc(OC)c21` (single isomer, unassigned) [Example 23], the concentration giving a half-maximal response (EC50) in assay [1] lay within 1000 to 10000 nM.

In the case of `COc1ccc(F)c(-c2ccc(COc3cc(F)c4c(c3F)[C@@]3(CC4)C[C@@H]3C(=O)O)cc2[C@H]2CCCC2(C)C)c1` (single isomer, unassigned) [Example 34], the 50% effective concentration (EC50) in assay [1] is 1000 to 10000 nM.

Take `COc1ccc(F)c(-c2ccc(COc3cc(F)c4c(c3F)[C@]3(CC4)C[C@@H]3C(=O)O)cc2[C@H]2CCCC2(C)C)c1` (single isomer, unassigned) [Example 35]: the EC50 in assay [1] is more than 10000 nM.

`COc1ccc(F)c(-c2ccc(COc3cc(F)c4c(c3F)[C@@]3(CC4)C[C@H]3C(=O)O)cc2[C@H]2CCCC2(C)C)c1` (single isomer, unassigned) [Example 36]: the half-maximal effective concentration (EC50) in assay [1] was more than 10000 nM.

In turn, `COc1ccc(F)c(-c2ccc(COc3cc(F)c4c(c3F)[C@]3(CC4)C[C@H]3C(=O)O)cc2[C@@H](OC)C(C)(C)C)c1` (single isomer, unassigned) [Example 37] showed an EC50 in assay [1] of 10 to 100 nM.

On to `COc1ccc(F)c(-c2ccc(COc3cc(F)c4c(c3F)[C@@]3(CC4)C[C@@H]3C(=O)O)cc2[C@@H](OC)C(C)(C)C)c1` (single isomer, unassigned) [Example 38], for which the EC50 in assay [1] lay within 1000 to 10000 nM.

The molecule `COc1ccc(F)c(-c2ccc(COc3cc(F)c4c(c3F)[C@]3(CC4)C[C@@H]3C(=O)O)cc2[C@@H](OC)C(C)(C)C)c1` (single isomer, unassigned) [Example 39] came in with a concentration giving a half-maximal response (EC50) in assay [1] of 1000 to 10000 nM.

On to `COc1ccc(F)c(-c2ccc(COc3cc(F)c4c(c3F)[C@@]3(CC4)C[C@H]3C(=O)O)cc2[C@@H](OC)C(C)(C)C)c1` (single isomer, unassigned) [Example 40], for which the EC50 in assay [1] is 1000 to 10000 nM.

The molecule `COc1cc(-c2ccc(COc3cc(F)c4c(c3F)[C@]3(CC4)C[C@H]3C(=O)O)cc2[C@@H]2CCCC2(C)C)c(F)cn1` (single isomer, unassigned) [Example 42] yielded an EC50 in assay [1] of 1000 to 10000 nM.

`COc1cc(-c2cc(F)c(COc3ccc4c(c3)[C@]3(CCC4)C[C@H]3C(=O)O)cc2[C@H]2CCCC2(C)C)c(F)cn1` (single isomer, unassigned) [Example 43] came in with a concentration for a half-maximal effect (EC50) in assay [1] of 10 to 100 nM.

In assay [1], `COc1ccc(COc2ccc3c(c2)[C@]2(CCC3)C[C@H]2C(=O)O)cc1[C@@H]1CCCC1(C)C` (single isomer, unassigned) [Example 128] returned an EC50 of 1000 to 10000 nM.

The molecule `COc1ccc(F)c(-c2ccc(COc3ccc4c(c3)[C@@]3(CC4)[C@H](C(=O)O)[C@@H]3C)cc2[C@@H]2CCCC2(C)C)c1` (single isomer, unassigned) [Example 140] returned an EC50 in assay [1] of 100 to 1000 nM.

`COc1ccc(F)c(-c2ccc(COc3ccc4c(c3)[C@]3(CC4)CC[C@@H]3C(=O)O)cc2[C@@H](OC)C(C)(C)C)c1` (single isomer, unassigned) [Example 145] displayed an EC50 in assay [1] of 1000 to 10000 nM.

Turning to `COc1ccc(F)c(-c2ccc(COc3ccc4c(c3)[C@]3(CC4)CC[C@@H]3C(=O)O)cc2[C@@H]2CCCC2(C)C)c1` (single isomer, unassigned) [Example 146], the concentration giving a half-maximal response (EC50) in assay [1] lay within 100 to 1000 nM.

In the case of `COc1ccc(F)c(-c2ccc(COc3ccc4c(c3)C3(CC4)CCC3C(=O)O)cc2C(OC)C(C)(C)C)c1` (single isomer, unassigned) [Example 147], the EC50 in assay [1] is 100 to 1000 nM.

In the case of `COc1ccc(F)c(-c2ccc(COc3ccc4c(c3)[C@]3(CCC4)CC[C@@H]3C(=O)O)cc2[C@@H](OC)C(C)(C)C)c1` (single isomer, unassigned) [Example 152], in assay [1], the EC50 fell in the range of 1000 to 10000 nM.

With `COc1cc(-c2ccc(COc3ccc4c(c3)[C@]3(CCC4)CC[C@@H]3C(=O)O)cc2[C@@H]2CCCC2(C)C)c(F)cn1` (single isomer, unassigned) [Example 153], in assay [1], the EC50 fell in the range of 1000 to 10000 nM.

In the case of `COc1ccc(F)c(-c2ccc(COc3ccc4c(c3)C3(CCC4)CCC3C(=O)O)cc2C(OC)C(C)(C)C)c1` (single isomer, unassigned) [Example 157], in assay [1], the EC50 fell in the range of 1000 to 10000 nM.

On to `COc1ccc(Cl)c(-c2ccc(COc3ccc4c(c3F)[C@@]3(CC4)C[C@@H]3C(=O)O)cc2[C@@H]2CCCC2(C)C)n1` (stereo in doubt) [Example 126], for which the 50% effective concentration (EC50) in assay [1] was in the range of 1000 to 10000 nM.

In assay [1], `COc1ccc(F)c(-c2ccc(COc3ccc4c(c3)[C@@]3(CC4)C[C@@H]3C(=O)O)cc2C2=CCCC2(C)C)c1` [Example 2] registered a concentration giving a half-maximal response (EC50) of more than 10000 nM.

With `COc1ccc(F)c(-c2ccc(COc3ccc4c(c3)[C@]3(CC4)C[C@@H]3C(=O)O)cc2C2=CCCC2(C)C)c1` [Example 3], the EC50 in assay [1] is more than 10000 nM.

Consider `COc1ccc(F)c(-c2ccc(COc3ccc4c(c3)[C@@]3(CC4)C[C@H]3C(=O)O)cc2C2=CCCC2(C)C)c1` [Example 4], for which the EC50 in assay [1] fell in the range of 1000 to 10000 nM.

`COc1ccc(F)c(-c2cc(COc3ccc4c(c3)[C@]3(CC4)C[C@H]3C(=O)O)ccc2C(C)(C)C)c1` [Example 5] returned a half-maximal effective concentration (EC50) in assay [1] of 1000 to 10000 nM.

In assay [1], `COc1ccc(F)c(-c2cc(COc3ccc4c(c3)[C@@]3(CC4)C[C@@H]3C(=O)O)ccc2C(C)(C)C)c1` [Example 6] showed an EC50 of more than 10000 nM.

In turn, `COc1ccc(F)c(-c2cc(COc3ccc4c(c3)[C@]3(CC4)C[C@@H]3C(=O)O)ccc2C(C)(C)C)c1` [Example 7] had an EC50 in assay [1] of more than 10000 nM.

As for `COc1ccc(F)c(-c2cc(COc3ccc4c(c3)[C@@]3(CC4)C[C@H]3C(=O)O)ccc2C(C)(C)C)c1` [Example 8], the half-maximal effective concentration (EC50) in assay [1] is more than 10000 nM.

Regarding `C=CC1(c2cc(COc3ccc4c(c3)[C@]3(CC4)C[C@H]3C(=O)O)ccc2-c2cc(OC)ncc2F)CCCC1` [Example 26], the EC50 in assay [1] lay in the range of 1000 to 10000 nM.

As for `COCC1(c2cc(COc3ccc4c(c3)[C@]3(CC4)C[C@H]3C(=O)O)ccc2-c2cc(OC)ncc2F)CCCC1` [Example 27], the EC50 in assay [1] lay in the range of 1000 to 10000 nM.

Regarding `COc1ccc(F)c(-c2ccc(COc3ccc4c(c3)[C@]3(CC4)C[C@H]3C(=O)O)cc2-c2nncn2C(C)C)c1` [Example 29], the EC50 in assay [1] was more than 10000 nM.

For the molecule `COc1ccc(F)c(-c2ccc(COc3ccc4c(c3)[C@@]3(CCC4)C[C@@H]3C(=O)O)cc2C2=CCCC2(C)C)c1` [Example 50], in assay [1], the concentration for a half-maximal effect (EC50) is more than 10000 nM.

In turn, `CC1(C)CCC(C)(C)c2cc(COc3ccc4c(c3)[C@]3(CC4)C[C@H]3C(=O)O)ccc21` [Example 104, (1R,2R)-6′-((5,5,8,8-tetramethyl-5,6,7,8-tetrahydro-2-naphthalenyl)methoxy)-2′,3′-dihydrospiro[cyclopropane-1,1′-indene]-2-carboxylic acid] gave an EC50 in assay [1] of more than 10000 nM.

Turning to `C=CC(C)(C)c1cc(COc2ccc3c(c2)[C@]2(CC3)C[C@H]2C(=O)O)ccc1-c1cc(OC)ncc1F` [Example 123, (1R,2R)-6′-(4-(5-Fluoro-2-methoxypyridin-4-yl)-3-(2-methylbut-3-en-2-yl)benzyloxy)-2′,3′-dihydrospiro[cyclopropane-1,1′-indene]-2-carboxylic acid], the EC50 in assay [1] lay within 1000 to 10000 nM.

As for `O=C(O)[C@@H]1C[C@]12CCc1ccc(Oc3ccc(C(F)(F)F)c(Br)c3)cc12` [Example 124, (1R,2R)-6′-(3-Bromo-4-(trifluoromethyl)phenoxy)-2′,3′-dihydrospiro[cyclopropane-1,1′-indene]-2-carboxylic acid], the concentration giving a half-maximal response (EC50) in assay [1] was in the range of 1000 to 10000 nM.
